Measurements reported in US20190125790A1, “USE OF HYPOCHLOROUS ACID AS A TOPICAL ANTIMICROBIAL” (BIIOSMART TECHNOLOGIES LLC, priority 2016, published 2019).

Tests used:
[1] = test system: E. coli; test: Efficacy at 30 seconds (Table 2); details: 0.01 to 0.05% aqueous solution
[2] = test system: S. Epidermidis; test: ASTM E2315 Time Kill Assay for Antimicrobial Agents; format: cell-based; details: 0.046% HOCl aqueous solution; 30 seconds; high organic load
Experimental: (§1) Table 3. below represents the efficacy of 0.046% aqueous hypochlorous acid solution in the presence of high organic load. ASTM E2315 Time Kill Assay for Antimicrobial Agents. The study was performed in ATS labs in Minnesota recommended by the U.S. FDA's Tentative Final Monograph for OTC Healthcare Antiseptic Drug. […] Additional times were evaluated: 1 minute, 5 minutes, and 10 minutes, all with and without organic soil (Using 10% whole milk and 5% Fetal Bovine Serum). The trend in the efficiency is maintained under the same proportions.

[3] = test system: Candida albicans; test: as above; format: cell-based; details: 0.046% HOCl aqueous solution; 30 seconds; high organic load
Experimental: as §1

[4] = test system: A. baumanii; test: as above; format: cell-based; details: 0.046% HOCl aqueous solution; 30 seconds; high organic load
Experimental: as §1

[5] = test system: K. pneumoniae NDM-1; test: as above; format: cell-based; details: 0.046% HOCl aqueous solution; 30 seconds; high organic load
Experimental: as §1

[6] = test system: S. marcenscens; test: as above; format: cell-based; details: 0.046% HOCl aqueous solution; 30 seconds; high organic load
Experimental: as §1

[7] = test system: K. pneumoniae - ESBL; test: as above; format: cell-based; details: 0.046% HOCl aqueous solution; 30 seconds; high organic load
Experimental: as §1

[8] = test system: P. aeruginosa; test: as above; format: cell-based; details: 0.046% HOCl aqueous solution; 30 seconds; high organic load
Experimental: as §1

[9] = test system: P. mirabilis; test: as above; format: cell-based; details: 0.046% HOCl aqueous solution; 30 seconds; high organic load
Experimental: as §1

[10] = test system: E. faecium; test: as above; format: cell-based; details: 0.046% HOCl aqueous solution; 30 seconds; high organic load
Experimental: as §1

[11] = test system: Haemophilus influenzae; test: as above; format: cell-based; details: 0.046% HOCl aqueous solution; 30 seconds; high organic load
Experimental: as §1

[12] = test system: Enterobacter aerogenes; test: as above; format: cell-based; details: 0.046% HOCl aqueous solution; 30 seconds; high organic load
Experimental: as §1

[13] = test system: K. oxytoca; test: as above; format: cell-based; details: 0.046% HOCl aqueous solution; 30 seconds; high organic load
Experimental: as §1

[14] = USP <51> Antimicrobial Effectiveness Testing; format: cell-based; details: 0.05% HOCl aqueous solution
Source text: A 0.05% HOCl aqueous solution is intended for the cleansing and removal of the most common bacteria and viruses associated with skin-to-skin sexually transmitted diseases (pre and post sexual activity) to promote general sexual hygiene.

[15] = test system: Human Papillomavirus; test: Efficacy at 30 seconds (Table 2); format: cell-based; details: 0.01 to 0.05% aqueous solution
[16] = test system: Herpes Simplex Virus type 2 (HSV-2); test: Test of viral inactivation, ASTM E1052-96 viruses in suspension; format: cell-based; details: 0.04% HOCl aqueous solution; 30 seconds
[17] = test system: Klebsiella oxytoca; test: Antimicrobial efficacy of HOCl skin cleanser (Table 1); format: cell-based; details: 0.01% HOCl; 30 seconds
[18] = Non-randomized study of skin ulcers, 822 patients; format: in vivo, human; details: 0.046% HOCl aqueous solution
Experimental: A non-randomized, non-placebo controlled study involving 822 patients with a variety of ulcers was conducted. These patients were treated with HOCl aqueous solution (0.046%) as the only therapeutic intervention and followed the patients for six months to evaluate ulcer closure as a marker of therapeutic success.

[19] = test system: Human papilloma virus; test: Antimicrobial efficacy of HOCl skin cleanser (Table 1); format: cell-based; details: 0.01% HOCl; 30 seconds
[20] = Teratogenicity; format: in vivo
Source text: (§2) Table 5. contains the results of several acute and sub-chronic toxicity tests.

[21] = test system: Pseudomona aeruginosa; test: Antimicrobial efficacy of HOCl skin cleanser (Table 1); format: cell-based; details: 0.01% HOCl; 30 seconds
[22] = test system: Candida albicans; test: as above; format: cell-based; details: 0.01% HOCl; 30 seconds
[23] = Acute Dermal Toxicity; format: in vivo; details: Albino New Zealand Rabbits, 0.05% HOCl solution, males and females
Source text: as §2

[24] = test system: Trichophyton mentagrophytes; test: Efficacy at 30 seconds (Table 2); format: cell-based; details: 0.01 to 0.05% aqueous solution
[25] = test system: Enterococcus faecalis; test: Antimicrobial efficacy of HOCl skin cleanser (Table 1); format: cell-based; details: 0.01% HOCl; 30 seconds
[26] = test system: Salmonella enteritidis; test: as above; format: cell-based; details: 0.01% HOCl; 30 seconds
[27] = test system: Bovine Diarrhea virus; test: Efficacy at 30 seconds (Table 2); format: cell-based; details: 0.01 to 0.05% aqueous solution
[28] = test system: K. pneumoniae; test: Efficacy at 30 seconds (Table 2); format: cell-based; details: 0.01 to 0.05% aqueous solution
[29] = Sub. Chronic Toxicity. 90 days; format: in vivo
Source text: as §2

[30] = test system: Vesicular Stomatitis Virus (VSV); format: cell-based; details: 0.04% HOCl aqueous solution; 30 seconds
[31] = Acute Inhalation Toxicity; format: in vivo, Young Adult Wistar Rats
Source text: as §2

[32] = test system: Enterovirus-71 (EV-71); test: Test of viral inactivation, ASTM E1052-96 viruses in suspension; format: cell-based; details: 0.04% HOCl aqueous solution; 30 seconds
[33] = Acute Oral Toxicity; details: both sexes, rat, in vivo, 5000 mg/Kg, Wistar Rats, 0.05% concentration HOCl aqueous solutions, males and females, read-out: acute median lethal dose LD50
Source text: as §2

SMILES: OCl [HOCl, hypochlorous acid]
- Log Reduction [1]: >5.87 Log10
- % Reduction [2]: 99.999%
- Log Reduction [2]: >5.60 Log10
- % Reduction [3]: 99.999%
- Log Reduction [3]: >5.19 Log10
- % Reduction [4]: 99.999%
- Log Reduction [4]: >6.15 Log10
- % Reduction [5]: 99.999%
- Log Reduction [5]: >5.59 Log10
- % Reduction [6]: 99.999%
- Log Reduction [6]: >5.37 Log10
- % Reduction [7]: 99.999%
- Log Reduction [7]: >5.76 Log10
- % Reduction [8]: 99.999%
- Log Reduction [8]: >5.96 Log10
- % Reduction [9]: 99.999%
- Log Reduction [9]: >5.65 Log10
- % Reduction [10]: 99.999%
- Log Reduction [10]: >5.32 Log10
- % Reduction [11]: >99.99%
- Log Reduction [11]: >4.81 Log10
- % Reduction [12]: 99.999%
- Log Reduction [12]: >5.90 Log10
- % Reduction [13]: 99.999%
- Log Reduction [13]: >5.50 Log10
- USP <51> Antimicrobial Effectiveness Testing outcome [14]: meets all requirements of USP <51> Antimicrobial Effectiveness Testing
- % Reduction [15]: 99.999%
- Log Reduction [15]: >5.35 Log10
- % Reduction [16]: 99.9999%
- Log Reduction [16]: 7.53
- % Reduction [17]: 99.99%
- Log Reduction [17]: >5.50 Log10
- interference with antibiotics administered orally [18]: No interference with antibiotics administered orally
- local infection rate for all ulcers [18]: Decreased the local infection rate for all ulcers
- closing index for venous ulcers ([18]; at 6 months): 97%
- closure of mixed ulcers ([18]; even when a surgical procedure was required): ≤ 75%
- recurrence rate ([18]; ulcers): 2.7 % a year
- % Reduction [19]: 99.99%
- Log Reduction [19]: >6.0 Log10
- mortalities ([20]; Oral administration of 1000 mg/Kg/day, Females and Pregnant Wistar rats): No mortalities, considered
- toxicity assessment ([20]; rat, in vivo, po, 1000 mg/kg/day): non-toxic
- % Reduction [21]: 99.99%
- Log Reduction [21]: >5.94 Log10
- % Reduction [22]: 99.99%
- Log Reduction [22]: >5.98 Log10
- Acute Lethal Dose [23]: > 5000 mg/kg body weight for males
- % Reduction [24]: >99.99%
- Log Reduction [24]: >4.92 Log10
- % Reduction [25]: 99.999%
- Log Reduction [25]: >6.5 Log10
- % Reduction [26]: 99.999%
- Log Reduction [26]: >6.4 Log10
- % Reduction [27]: 99.999%
- Log Reduction [27]: >5.35 Log10
- % Reduction [28]: 99.999%
- Log Reduction [28]: >5.46 Log10
- mortalities ([29]; 90 days, 1000 mg/Kg Body weight, Wistar Rats): No mortalities, considered
- toxicity assessment ([29]; rat, in vivo, 1000 mg/kg): non-toxic
- % Reduction [30]: 99.9999%
- Log Reduction [30]: 7.66
- survival after exposure to the test atmosphere ([31]; Gravimetric Chamber concentration 2.07 mg/L of HOCl, Wistar Rats): Animals All animals survived
- LC50 ([31]; both sexes, Wistar, rat, in vivo, 2.07 mg/L, male and female rats): > 2.07 µg/mL
- % Reduction [32]: 99.998%
- Log Reduction [32]: 4.83
- LD50 [33]: > 5000 mg/kg
